This note sets out measurements from PubChem BioAssay (NCI).

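Exposure lasted 48 hours, with cells grown in 96-well plates and compounds tested at five concentrations. The concentration for full growth arrest is given as TGI.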

The first test concerns 786-0 renal. In words: NCI anticancer screen, dose series, 48 h.
Turning to `CCN(CC)CCC(=O)c1ccc(Oc2ccc(Cl)cc2)cc1`, the TGI was 28.3 µM.

Turning to `CC1CNc2ccccc2N=C1NN` (stereo unspecified), the TGI was greater than 100 µM.

`COc1ccc(/C=C(/C#N)C(N)=O)cc1OC` came in with a TGI greater than 100 µM.

In turn, `CCOC(=O)C1(C(=O)OCC)Nc2cccnc2N(C)N1` displayed a TGI of 36 µM.

The next test has as its system A498 renal. In words: NCI anticancer screen, dose series, 48 h.
`CCN(CC)CCC(=O)c1ccc(Oc2ccc(Cl)cc2)cc1` showed a TGI of 31.7 µM.

Molecule `CC1CNc2ccccc2N=C1NN` (stereo unspecified) gave a TGI greater than 100 µM.

With `COc1ccc(/C=C(/C#N)C(N)=O)cc1OC`, the TGI was greater than 100 µM.

As to `CCOC(=O)C1(C(=O)OCC)Nc2cccnc2N(C)N1`, the TGI was found to be 52.4 µM.

Another test concerns A549 NSCLC. In words: NCI anticancer screen, dose series, 48 h.
Molecule `CCN(CC)CCC(=O)c1ccc(Oc2ccc(Cl)cc2)cc1` gave a TGI greater than 100 µM.

Take `CC1CNc2ccccc2N=C1NN` (stereo unspecified): the TGI is greater than 100 µM.

As to `COc1ccc(/C=C(/C#N)C(N)=O)cc1OC`, the TGI is greater than 100 µM.

As to `CCOC(=O)C1(C(=O)OCC)Nc2cccnc2N(C)N1`, the TGI was greater than 100 µM.

The next test concerns ACHN renal. Briefly: NCI anticancer screen, dose series, 48 h.
`CCN(CC)CCC(=O)c1ccc(Oc2ccc(Cl)cc2)cc1` came in with a TGI of 25.8 µM.

`CC1CNc2ccccc2N=C1NN` (stereo unspecified) registered a TGI greater than 100 µM.

Take `COc1ccc(/C=C(/C#N)C(N)=O)cc1OC`: the TGI is greater than 100 µM.

Another test concerns BT-549 breast. In words: NCI anticancer screen, dose series, 48 h.
Take `CCN(CC)CCC(=O)c1ccc(Oc2ccc(Cl)cc2)cc1`: the TGI was 32.6 µM.

`CC1CNc2ccccc2N=C1NN` (stereo unspecified) returned a TGI greater than 100 µM.

Regarding `COc1ccc(/C=C(/C#N)C(N)=O)cc1OC`, the TGI is greater than 100 µM.

`CCOC(=O)C1(C(=O)OCC)Nc2cccnc2N(C)N1` yielded a TGI greater than 100 µM.

The next test has as its system CAKI-1 renal. Briefly: NCI anticancer screen, dose series, 48 h.
The molecule `CCN(CC)CCC(=O)c1ccc(Oc2ccc(Cl)cc2)cc1` returned a TGI of 37.9 µM.

In the case of `CC1CNc2ccccc2N=C1NN` (stereo unspecified), the TGI was greater than 100 µM.

Regarding `COc1ccc(/C=C(/C#N)C(N)=O)cc1OC`, the TGI was greater than 100 µM.

Molecule `CCOC(=O)C1(C(=O)OCC)Nc2cccnc2N(C)N1` displayed a TGI of 36.1 µM.

Another test has as its system CCRF-CEM leukemia. Briefly: NCI anticancer screen, dose series, 48 h.
`CCN(CC)CCC(=O)c1ccc(Oc2ccc(Cl)cc2)cc1` showed a TGI of 58.1 µM.

With `CC1CNc2ccccc2N=C1NN` (stereo unspecified), the TGI is greater than 100 µM.

Regarding `COc1ccc(/C=C(/C#N)C(N)=O)cc1OC`, the TGI is greater than 100 µM.

On to `CCOC(=O)C1(C(=O)OCC)Nc2cccnc2N(C)N1`, for which the TGI turned out to be 44.6 µM.

In another test the test system is COLO 205 colon. Briefly: NCI anticancer screen, dose series, 48 h.
On to `CCN(CC)CCC(=O)c1ccc(Oc2ccc(Cl)cc2)cc1`, for which the TGI came out at 45.1 µM.

For the molecule `CC1CNc2ccccc2N=C1NN` (stereo unspecified), the TGI was greater than 100 µM.

As for `COc1ccc(/C=C(/C#N)C(N)=O)cc1OC`, the TGI was greater than 100 µM.

Consider `CCOC(=O)C1(C(=O)OCC)Nc2cccnc2N(C)N1`, for which the TGI amounted to 24.2 µM.

The subject of a further test is DU-145 prostate. In words: NCI anticancer screen, dose series, 48 h.
As for `CCN(CC)CCC(=O)c1ccc(Oc2ccc(Cl)cc2)cc1`, the TGI was found to be 47.8 µM.

As for `CC1CNc2ccccc2N=C1NN` (stereo unspecified), the TGI is greater than 100 µM.

Regarding `COc1ccc(/C=C(/C#N)C(N)=O)cc1OC`, the TGI is greater than 100 µM.

In the case of `CCOC(=O)C1(C(=O)OCC)Nc2cccnc2N(C)N1`, the TGI turned out to be 42.5 µM.

The subject of another test is EKVX NSCLC. In words: NCI anticancer screen, dose series, 48 h.
`CCN(CC)CCC(=O)c1ccc(Oc2ccc(Cl)cc2)cc1`: the TGI amounted to 42.2 µM.

Take `CC1CNc2ccccc2N=C1NN` (stereo unspecified): the TGI was greater than 100 µM.

For `COc1ccc(/C=C(/C#N)C(N)=O)cc1OC`, the TGI was greater than 100 µM.

A further test concerns HCC-2998 colon. In words: NCI anticancer screen, dose series, 48 h.
Regarding `CCN(CC)CCC(=O)c1ccc(Oc2ccc(Cl)cc2)cc1`, the TGI worked out at 34.2 µM.

Consider `CC1CNc2ccccc2N=C1NN` (stereo unspecified), for which the TGI is greater than 100 µM.

The next test relates to HCT-116 colon. In words: NCI anticancer screen, dose series, 48 h.
Molecule `CCN(CC)CCC(=O)c1ccc(Oc2ccc(Cl)cc2)cc1` had a TGI of 32 µM.

The molecule `CC1CNc2ccccc2N=C1NN` (stereo unspecified) had a TGI greater than 100 µM.

The molecule `COc1ccc(/C=C(/C#N)C(N)=O)cc1OC` gave a TGI greater than 100 µM.

In the case of `CCOC(=O)C1(C(=O)OCC)Nc2cccnc2N(C)N1`, the TGI was 73.9 µM.

The test system of a further test is HCT-15 colon. In words: NCI anticancer screen, dose series, 48 h.
`CCN(CC)CCC(=O)c1ccc(Oc2ccc(Cl)cc2)cc1` registered a TGI of 38.8 µM.

`CC1CNc2ccccc2N=C1NN` (stereo unspecified) showed a TGI greater than 100 µM.

In turn, `COc1ccc(/C=C(/C#N)C(N)=O)cc1OC` showed a TGI greater than 100 µM.

The molecule `CCOC(=O)C1(C(=O)OCC)Nc2cccnc2N(C)N1` displayed a TGI of 36.2 µM.

In a further test the test system is HL-60(TB) leukemia. In words: NCI anticancer screen, dose series, 48 h.
Take `CCN(CC)CCC(=O)c1ccc(Oc2ccc(Cl)cc2)cc1`: the TGI was 59.8 µM.

Take `CC1CNc2ccccc2N=C1NN` (stereo unspecified): the TGI is greater than 24.8 µM.

The molecule `COc1ccc(/C=C(/C#N)C(N)=O)cc1OC` came in with a TGI greater than 100 µM.

On to `CCOC(=O)C1(C(=O)OCC)Nc2cccnc2N(C)N1`, for which the TGI is 58 µM.

Another test relates to HOP-62 NSCLC. In words: NCI anticancer screen, dose series, 48 h.
Regarding `CCN(CC)CCC(=O)c1ccc(Oc2ccc(Cl)cc2)cc1`, the TGI was determined as 24.1 µM.

`CC1CNc2ccccc2N=C1NN` (stereo unspecified) returned a TGI greater than 100 µM.

As for `COc1ccc(/C=C(/C#N)C(N)=O)cc1OC`, the TGI is greater than 100 µM.

Turning to `CCOC(=O)C1(C(=O)OCC)Nc2cccnc2N(C)N1`, the TGI was greater than 100 µM.
